According to the NIST ThermoML archive (doi:10.1016/j.jct.2017.10.013):
Where “and” joins values, the source holds several entries; their conditions need not be identical. Equal entries are not always repeated. ± gives the expanded uncertainty stated by the source.

Key:
[1] = for molar entropy: 101.33 kPa, Vacuum adiabatic calorimetry; for Triple point temperature: Adiabatic calorimetry
[2] = molar heat capacity at constant pressure; settings: 101.33 kPa, Vacuum adiabatic calorimetry

[Ho+3].[Ho+3].[Se-2].[Se-2].[Se-2] [holmium selenide (Ho2Se3)]
Settings	molar entropy, [1] [J/K/mol]	molar heat capacity at constant pressure, [2]
4.75 K, Crystal 3	–	4.433 ± 0.36 J/K/mol
5 K, Crystal 3	1.64 ± 0.2	5.229 ± 0.44 J/K/mol
5.01 K, Crystal 3	–	4.889 ± 0.41 J/K/mol
5.32 K, Crystal 3	–	7.582 ± 0.62 J/K/mol
6.03 K, Crystal 2	3.189 ± 0.39	12 ± 0.96 J/K/mol and 11.86 ± 0.95 J/K/mol
6.03 K, Crystal 3	3.189 ± 0.39	11.86 ± 0.96 J/K/mol and 12 ± 0.97 J/K/mol
7 K, Crystal 2	–	10.5 ± 0.8 J/K/mol
7.23 K, Crystal 2	–	9.963 ± 0.8 J/K/mol
8 K, Crystal 2	–	6.9 ± 0.6 J/K/mol
8.62 K, Crystal 2	–	9.268 ± 0.74 J/K/mol
9 K, Crystal 2	–	7.3 ± 0.6 J/K/mol
10 K, Crystal 2	8.227 ± 0.99	8.4 ± 0.7 J/K/mol
10.31 K, Crystal 2	–	9.187 ± 0.74 J/K/mol
10.68 K, Crystal 2	–	9.794 ± 0.79 J/K/mol
11.33 K, Crystal 2	–	10.14 ± 0.81 J/K/mol
12.42 K, Crystal 2	–	11.01 ± 0.88 J/K/mol
13.07 K, Crystal 2	–	11.54 ± 0.93 J/K/mol
14.47 K, Crystal 2	–	12.75 ± 1 J/K/mol
15 K, Crystal 2	12.67 ± 1.5	13.14 ± 1.1 J/K/mol
16.86 K, Crystal 2	–	14.62 ± 1.2 J/K/mol
20 K, Crystal 2	17.04 ± 0.23	17.39 ± 0.16 J/K/mol
20.03 K, Crystal 2	–	17.51 ± 0.16 J/K/mol
22.71 K, Crystal 2	–	19.72 ± 0.18 J/K/mol
25 K, Crystal 2	21.4 ± 0.28	22.07 ± 0.19 J/K/mol
25.13 K, Crystal 2	–	22.18 ± 0.19 J/K/mol
28.04 K, Crystal 2	–	25.54 ± 0.22 J/K/mol
30 K, Crystal 2	25.92 ± 0.33	27.86 ± 0.23 J/K/mol
31.2 K, Crystal 2	–	29.55 ± 0.25 J/K/mol
34.35 K, Crystal 2	–	34.03 ± 0.28 J/K/mol
35 K, Crystal 2	30.74 ± 0.38	34.94 ± 0.29 J/K/mol
37.49 K, Crystal 2	–	38.79 ± 0.32 J/K/mol
40 K, Crystal 2	35.91 ± 0.45	42.81 ± 0.36 J/K/mol
40.37 K, Crystal 2	–	43.37 ± 0.36 J/K/mol
43.16 K, Crystal 2	–	48 ± 0.4 J/K/mol
45 K, Crystal 2	41.42 ± 0.51	50.85 ± 0.42 J/K/mol
46.66 K, Crystal 2	–	53.47 ± 0.44 J/K/mol
50 K, Crystal 2	47.18 ± 0.58	58.65 ± 0.48 J/K/mol
51.18 K, Crystal 2	–	60.48 ± 0.5 J/K/mol
55.76 K, Crystal 2	–	66.98 ± 0.55 J/K/mol
59.76 K, Crystal 2	–	72.46 ± 0.59 J/K/mol
60 K, Crystal 2	59.16 ± 0.73	72.86 ± 0.6 J/K/mol
63.99 K, Crystal 2	–	77.76 ± 0.64 J/K/mol
68.39 K, Crystal 2	–	82.55 ± 0.68 J/K/mol
70 K, Crystal 2	71.3 ± 0.88	84.33 ± 0.69 J/K/mol
72.45 K, Crystal 2	–	86.7 ± 0.71 J/K/mol
76.57 K, Crystal 2	–	90.48 ± 0.74 J/K/mol
80 K, Crystal 2	83.16 ± 0.5	93.16 ± 0.37 J/K/mol
80.18 K, Crystal 2	–	93.23 ± 0.37 J/K/mol
85.83 K, Crystal 2	–	97.43 ± 0.39 J/K/mol
90 K, Crystal 2	94.54 ± 0.6	99.99 ± 0.42 J/K/mol
91.8 K, Crystal 2	–	101 ± 0.4 J/K/mol
97.35 K, Crystal 2	–	103.9 ± 0.4 J/K/mol
100 K, Crystal 2	105.4 ± 0.7	105.2 ± 0.4 J/K/mol
102.86 K, Crystal 2	–	106.2 ± 0.4 J/K/mol
108.72 K, Crystal 2	–	108.5 ± 0.5 J/K/mol
110 K, Crystal 2	115.6 ± 0.7	109.2 ± 0.5 J/K/mol
114.93 K, Crystal 2	–	110.9 ± 0.5 J/K/mol
120 K, Crystal 2	125.2 ± 0.8	112.4 ± 0.5 J/K/mol
121.18 K, Crystal 2	–	112.4 ± 0.5 J/K/mol
127.91 K, Crystal 2	–	114.2 ± 0.5 J/K/mol
130 K, Crystal 2	134.3 ± 0.8	114.8 ± 0.5 J/K/mol
135.11 K, Crystal 2	–	115.7 ± 0.5 J/K/mol
140 K, Crystal 2	142.9 ± 0.9	116.5 ± 0.5 J/K/mol
142.05 K, Crystal 2	–	116.8 ± 0.5 J/K/mol
148.79 K, Crystal 2	–	117.9 ± 0.5 J/K/mol
150 K, Crystal 2	151 ± 0.9	117.9 ± 0.5 J/K/mol
155.35 K, Crystal 2	–	118.6 ± 0.5 J/K/mol
160 K, Crystal 2	158.6 ± 0.9	119 ± 0.5 J/K/mol
161.76 K, Crystal 2	–	119.2 ± 0.5 J/K/mol
168.04 K, Crystal 2	–	119.9 ± 0.5 J/K/mol
170 K, Crystal 2	165.9 ± 1	119.9 ± 0.5 J/K/mol
174.8 K, Crystal 2	–	120.3 ± 0.5 J/K/mol
180 K, Crystal 2	172.7 ± 1	120.8 ± 0.5 J/K/mol
182.04 K, Crystal 2	–	120.9 ± 0.5 J/K/mol
189.15 K, Crystal 2	–	121.4 ± 0.5 J/K/mol
190 K, Crystal 2	179.3 ± 1.7	121.5 ± 0.8 J/K/mol
196.14 K, Crystal 2	–	122.1 ± 0.8 J/K/mol
200 K, Crystal 2	185.5 ± 1.7	122.1 ± 0.8 J/K/mol
203.04 K, Crystal 2	–	122.2 ± 0.8 J/K/mol
209.83 K, Crystal 2	–	122.9 ± 0.8 J/K/mol
210 K, Crystal 2	191.5 ± 1.8	122.8 ± 0.8 J/K/mol
216.54 K, Crystal 2	–	123.2 ± 0.8 J/K/mol
217.14 K, Crystal 2	–	123.4 ± 0.8 J/K/mol
220 K, Crystal 2	197.3 ± 1.8	123.6 ± 0.8 J/K/mol
220.38 K, Crystal 2	–	123.3 ± 0.8 J/K/mol
222.96 K, Crystal 2	–	123.9 ± 0.8 J/K/mol
223.16 K, Crystal 2	–	124 ± 0.8 J/K/mol
224.88 K, Crystal 2	–	124.3 ± 0.8 J/K/mol
226.8 K, Crystal 2	–	124.9 ± 0.8 J/K/mol
228.4 K, Crystal 1	201.9 ± 1.9	125 ± 0.8 J/K/mol and 125.2 ± 0.8 J/K/mol
228.4 K, Crystal 2	201.9 ± 1.9	125.2 ± 0.8 J/K/mol and 125 ± 0.8 J/K/mol
229.68 K, Crystal 1	–	124.4 ± 0.8 J/K/mol
229.7 K, Crystal 1	–	124.4 ± 0.8 J/K/mol
230 K, Crystal 1	202.8 ± 1.9	124.3 ± 0.8 J/K/mol
230.95 K, Crystal 1	–	123.6 ± 0.8 J/K/mol
232.22 K, Crystal 1	–	122.9 ± 0.8 J/K/mol
233.8 K, Crystal 1	–	123.6 ± 0.8 J/K/mol
235.69 K, Crystal 1	–	122.7 ± 0.8 J/K/mol
236.16 K, Crystal 1	–	123.1 ± 0.8 J/K/mol
238.19 K, Crystal 1	–	123.1 ± 0.8 J/K/mol
240 K, Crystal 1	208 ± 1.9	123.1 ± 0.8 J/K/mol
241.31 K, Crystal 1	–	123.4 ± 0.8 J/K/mol
242.82 K, Crystal 1	–	122.7 ± 0.8 J/K/mol
244.42 K, Crystal 1	–	123.3 ± 0.8 J/K/mol
249.67 K, Crystal 1	–	123.4 ± 0.5 J/K/mol
250 K, Crystal 1	213 ± 1.3	123.4 ± 0.5 J/K/mol
256.45 K, Crystal 1	–	123.6 ± 0.5 J/K/mol
260 K, Crystal 1	217.9 ± 1.3	123.6 ± 0.5 J/K/mol
263.41 K, Crystal 1	–	123.5 ± 0.5 J/K/mol
270 K, Crystal 1	222.6 ± 1.3	123.7 ± 0.5 J/K/mol
270.54 K, Crystal 1	–	123.7 ± 0.5 J/K/mol
274.01 K, Crystal 1	–	123.6 ± 0.5 J/K/mol
276.98 K, Crystal 1	–	124 ± 0.5 J/K/mol
280 K, Crystal 1	227.1 ± 1.4	123.8 ± 0.5 J/K/mol
280.45 K, Crystal 1	–	123.7 ± 0.5 J/K/mol
284.65 K, Crystal 1	–	124 ± 0.5 J/K/mol
289.2 K, Crystal 1	–	123.9 ± 0.5 J/K/mol
290 K, Crystal 1	231.4 ± 1.4	123.9 ± 0.5 J/K/mol
293.71 K, Crystal 1	–	123.6 ± 0.5 J/K/mol
298.15 K, Crystal 1	234.8 ± 1.4	123.9 ± 0.5 J/K/mol
298.18 K, Crystal 1	–	123.9 ± 0.5 J/K/mol
300 K, Crystal 1	235.6 ± 1.4	123.9 ± 0.5 J/K/mol
302 K, Crystal 1	236.4 ± 1.4	123.9 ± 0.5 J/K/mol
302.6 K, Crystal 1	–	124.2 ± 0.5 J/K/mol

[1]
Settings	Triple point temperature [K]
Crystal 2	228.4 ± 0.05
Crystal 3	6.03 ± 0.05
